Measured values: patent US20230115907A1, “HETEROCYCLIC COMPOUND AND PHARMACEUTICAL COMPOSITION, PREPARATION METHOD, INTERMEDIATE AND USE THEREOF” (EVOPOINT BIOSCIENCES CO., LTD., priority 2019, published 2023)

Assays:
[1] = test system: OVCAR3 cells; test: Inhibition of cell proliferation, CellTiter-Glo, OVCAR3; type: cell-based; settings: Homo sapiens, OVCAR-3, 72 h, Efficacy Example 2 (Table 2), 72 h incubation
Protocol: (§1) The compounds were each prepared with 100% DMSO into 10 mM mother liquor.
(§2) HCC70 cells and OVCAR3 cells were digested and counted. Cells were diluted to an appropriate concentration according to cell density. 100 μL of cells were added to each well of a 96-well plate. Medium wells served as blank control (Min). The cells were incubated overnight in an incubator at 37° C./5% CO2.
(§3) A 200-fold stock solution of a compound was prepared with DMSO, and the compound was diluted with growth medium to a 3-fold stock solution, i.e., […] of each of 200-fold stock solutions of compound at different concentrations was added to 197 μL of medium. 50 μL of diluted compound was added to each well and the mixture was incubated at 37° C./5% CO2 for 72 h.
(§4) The 96-well plate was equilibrated to room temperature before detection. 40 μL of CellTiter-Glo solution was added to each well. The mixture was mixed for 2 min using a horizontal shaker to induce cell lysis. The mixture was incubated at room temperature for 60 min to stabilize […] signals. Fluorescence values were read on ENVISION.
(§5) (1) Data was analyzed by GraphPad Prism 5
(§6) (2) % inhibition rate=(maximum signal−compound signal)/(maximum signal−minimum signal)×100
(§7) (3) Maximum signal: signal of DMSO well
(§8) (4) Minimum signal: signal of medium well
(§9) The effect of SZ-015200, SZ-015256 and SZ-015268 on cell proliferation after incubation with HCC70, OVCAR-3, HCT116 and HCC1806 cells for 3 days was detected according to the method described in Efficacy Example 2, and the results are shown in Table 3.

[2] = test system: HCC70 cells; test: Inhibition of cell proliferation, CellTiter-Glo, HCC70; type: cell-based; settings: Homo sapiens, HCC70, 72 h, Efficacy Example 2 (Table 2), 72 h incubation
Protocol: as §1, §2, §3, §4, §5, §6, §7, §8, §9

Structure (SMILES)	IC50 [1] [nM]	IC50 [2] [nM]
CC(C)c1cnn2c(NCc3ccccc3)cc(NC[C@H]3CCNC[C@@H]3O)nc12 [CT7001, reference compound]	467	310
Cc1nc(NC2CCN(C(=O)O[C@H]3CCN(C(=O)/C=C/CN(C)C)C3)CC2)c2ncn(C(C)C)c2n1 [SZ-015264, (S,E)-1-(4-(dimethylamino)but-2-enoyl)pyrrolidin-3-yl 4-((9-isopropyl-2-methyl-9H-purin-6-yl)amino)piperidine-1-carboxylate]	234	181
Cc1nc(NC2CCN(C(=O)O[C@@H]3CCN(C(=O)/C=C/CN(C)C)C3)CC2)n2ncc(C(C)C)c2n1 [SZ-015282, (R,E)-1-(4-(dimethylamino)but-2-enoyl)pyrrolidin-3-yl 4-((8-isopropyl-2-methylpyrazolo[1,5-a][1,3,5]triazin-4-yl)amino)piperidine-1-carboxylate]	92.1	82.4
CC#CC(=O)N1CC[C@@H](OC(=O)N2CCC(Nc3cc(C)nc4c3ncn4C(C)C)CC2)C1 [SZ-015284, (R)-1-(but-2-ynoyl)tetrahydropyrrol-3-yl 4-((3-isopropyl-5-methyl-3H-imidazo[4,5-b]pyridin-7-yl)amino)piperidine-1-carboxylate]		97.4
CCn1cnc2c(NC3CCN(C(=O)O[C@H]4CCN(C(=O)/C=C/CN(C)C)C4)CC3)ccnc21 [SZ-015285, (S,E)-1-(4-(dimethylamino)but-2-enoyl)pyrrolidin-3-yl 4-((3-ethyl-3H-imidazo[4,5-b]pyridin-7-yl)amino)piperidine-1-carboxylate]	620	1050
CC(C)n1cnc2c(NC3CCN(C(=O)O[C@H]4CCN(C(=O)/C=C/CN(C)C)C4)CC3)ccnc21 [SZ-015286, (S,E)-1-(4-(dimethylamino)but-2-enoyl)pyrrolidin-3-yl 4-((3-isopropyl-3H-imidazo[4,5-b]pyridin-7-yl)amino)piperidine-1-carboxylate]	167	570
CC#CC(=O)N1CC[C@H](OC(=O)N2CCC(Nc3cc(C)nc4c3ncn4C(C)C)CC2)C1 [SZ-015289, (S)-1-(but-2-ynoyl)tetrahydropyrrol-3-yl 4-((3-isopropyl-5-methyl-3H-imidazo[4,5-b]pyridin-7-yl)amino)piperidine-1-carboxylate]		117
CC#CC(=O)N1CC[C@H](OC(=O)N2CCC(Nc3nc(C)nc4c(C(C)C)cnn34)CC2)C1 [SZ-015294, (S)-1-(but-2-ynoyl)pyrrolidin-3-yl 4-((8-isopropyl-2-methylpyrazolo[1,5-a][1,3,5]triazin-4-yl)amino)piperidine-1-carboxylate]	72.1	50.2
CC[C@H](CO)Nc1nc(NC2CCN(C(=O)O[C@H]3CCN(C(=O)/C=C/CN(C)C)C3)CC2)c2ncn(C(C)C)c2n1 [SZ-015295, (S)-1-((E)-4-(dimethylamino)but-2-enoyl)pyrrolidin-3-yl 4-((2-(((R)-1-hydroxybutan-2-yl)amino)-9-isopropyl-9H-purin-6-yl)amino)piperidine-1-carboxylate]	62.8	110
CC(C)n1cnc2c(NC3CCN(C(=O)O[C@H]4CCN(C(=O)/C=C/CN(C)C)C4)CC3)nc(CO)nc21 [SZ-015297, (S,E)-1-(4-(dimethylamino)but-2-enoyl)pyrrolidin-3-yl-4-((2-(hydroxymethyl)-9-isopropyl-9H-purin-6-yl)amino)piperidine-1-carboxylate]	168	252
CC(C)n1cnc2c(NC3CCN(C(=O)O[C@H]4CCN(C(=O)/C=C/CN(C)C)C4)CC3)nc(-c3cn[nH]c3)nc21 [SZ-015298, (S,E)-1-(4-(dimethylamino)but-2-enoyl)pyrrolidin-3-yl 4-((9-isopropyl-2-(1H-pyrazol-4-yl)-9H-purin-6-yl)amino)piperidine-1-carboxylate]		405
CC(C)Nc1cc(NC2CCN(C(=O)O[C@H]3CCN(C(=O)/C=C/CN(C)C)C3)CC2)c2ncn(C(C)C)c2n1 [SZ-015303, (S,E)-1-(4-(dimethylamino)but-2-enoyl)pyrrolidin-3-yl 4-((3-isopropyl-5-(isopropylamino)-3H-imidazo[4,5-b]pyridin-7-yl)amino)piperidine-1-carboxylate]	114	129
CC[C@H](CO)Nc1cc(NC2CCN(C(=O)O[C@H]3CCN(C(=O)/C=C/CN(C)C)C3)CC2)c2ncn(C(C)C)c2n1 [SZ-015306, (S)-1-((E)-4-(dimethylamino)but-2-enoyl)pyrrolidin-3-yl 4-((5-(((R)-1-hydroxybutan-2-yl)amino)-3-isopropyl-3H-imidazo[4,5-b]pyridin-7-yl)amino)piperidine-1-carboxylate]	281	205
Cc1cc(NC2CCN(C(=O)OC3CN(C(=O)/C=C/CN(C)C)C3)CC2)c2ncn(C(C)C)c2n1 [SZ-015307, (E)-1-(4-(dimethylamino)but-2-enoyl)azetidin-3-yl 4-((3-isopropyl-5-methyl-3H-imidazo[4,5-b]pyridin-7-yl)amino)piperidine-1-carboxylate]	139	78
Cc1nc(NC2CCN(C(=O)OC3CN(C(=O)/C=C/CN(C)C)C3)CC2)c2ncn(C(C)C)c2n1 [SZ-015308, (E)-1-(4-(dimethylamino)but-2-enoyl)azetidin-3-yl 4-((9-isopropyl-2-methyl-9H-purin-6-yl)amino)piperidine-1-carboxylate]		92.1
CCc1nc(NC2CCN(C(=O)O[C@H]3CCN(C(=O)/C=C/CN(C)C)C3)CC2)c2ncn(C(C)C)c2n1 [SZ-015310, (S,E)-1-(4-(dimethylamino)but-2-enoyl)pyrrolidin-3-yl 4-((2-ethyl-9-isopropyl-9H-purin-6-yl)amino)piperidine-1-carboxylate]	58.4	29.5
COCCNc1cc(NC2CCN(C(=O)O[C@H]3CCN(C(=O)/C=C/CN(C)C)C3)CC2)c2ncn(C(C)C)c2n1 [SZ-015311, (S,E)-1-(4-(dimethylamino)but-2-enoyl)pyrrolidin-3-yl 4-((3-isopropyl-5-((2-methoxyethyl)amino)-3H-imidazo[4,5-b]pyridin-7-yl)amino)piperidine-1-carboxylate]	99.6	95
CC[C@H](CO)Nc1cc(NC2CCN(C(=O)O[C@H]3CCN(C(=O)/C=C/CN(C)C)C3)CC2)c2ncc(C(C)C)n2n1 [SZ-015317, (S)-1-((E)-4-(dimethylamino)but-2-enoyl)pyrrolidin-3-yl 4-((6-(((R)-1-hydroxybutan-2-yl)amino)-3-isopropylimidazo[1,2-b]pyridazin-8-yl)amino) piperidine-1-carboxylate]	429	237
CC(C)c1cc(NC2CCN(C(=O)O[C@H]3CCN(C(=O)/C=C/CN(C)C)C3)CC2)c2ncn(C(C)C)c2n1 [SZ-015319, (S,E)-1-(4-(dimethylamino)but-2-enoyl)pyrrolidin-3-yl 4-((3,5-diisopropyl-3H-imidazo[4,5-b]pyridin-7-yl)amino)piperidine-1-carboxylate]	72.5	50.5
CC[C@H](CO)Nc1nc(NC2CCN(C(=O)O[C@H]3CCN(C(=O)/C=C/CN(C)C)C3)CC2)n2ncc(C(C)C)c2n1 [SZ-015326, (S)-1-((E)-4-(dimethylamino)but-2-enoyl)pyrrolidin-3-yl 4-((2-(((R)-1-hydroxybutan-2-yl)amino)-8-isopropylpyrazolo[1,5-a][1,3,5]triazin-4-yl)amino)piperidine-1-carboxylate]	33.2	50.3
CC(C)Nc1nc(NC2CCN(C(=O)O[C@H]3CCN(C(=O)/C=C/CN(C)C)C3)CC2)c2ncc(C(C)C)n2n1 [SZ-015328, (S,E)-1-(4-(dimethylamino)but-2-enoyl)pyrrolidin-3-yl 4-((7-isopropyl-2-(isopropylamino)imidazo[2,1-f][1,2,4]triazin-4-yl)amino)piperidine-1-carboxylate]	110	252
CC(C)Nc1nc(NC2CCN(C(=O)O[C@H]3CCN(C(=O)/C=C/CN(C)C)C3)CC2)n2ncc(C(C)C)c2n1 [SZ-015330, (S,E)-1-(4-(dimethylamino)but-2-enoyl)pyrrolidin-3-yl 4-((8-isopropyl-2-(isopropylamino)pyrazolo[1,5-a][1,3,5]triazin-4-yl)amino)piperidine-1-carboxylate]	44	61
CC(C)c1cnn2c(NC3CCN(C(=O)O[C@H]4CCN(C(=O)/C=C/CN(C)C)C4)CC3)nc(NC3CC3)nc12 [SZ-015331, (S,E)-1-(4-(dimethylamino)but-2-enoyl)pyrrolidin-3-yl 4-((2-(cyclopropylamino)-8-isopropylpyrazolo[1,5-a][1,3,5]triazin-4-yl)amino)piperidine-1-carboxylate]	36.7	70.1
CC(C)Oc1nc(NC2CCN(C(=O)O[C@H]3CCN(C(=O)/C=C/CN(C)C)C3)CC2)n2ncc(C(C)C)c2n1 [SZ-015332, (S,E)-1-(4-(dimethylamino)but-2-enoyl)pyrrolidin-3-yl 4-((2-isopropoxy-8-isopropylpyrazolo[1,5-a][1,3,5]triazin-4-yl)amino)piperidine-1-carboxylate]	44.7	51.5
